Data: US20100099676A1 (SHIONOGI & CO., LTD., priority 2006, published 2010)

Each molecule was assayed against T1, MMP-2 (Homo sapiens, UniProt P08253) (assay: Enzyme inhibiting activity of MMPs, fluorogenic peptide substrate). Settings: substrate MOCAc-Pro-Leu-Gly-Leu-A2Pr(DNP)-Ala-Arg-NH2, fluorescent intensity.
T1 construct: purchased Calbiochem (EMD/MERCK Biosciences)
T1 sequence (P08253 110-660): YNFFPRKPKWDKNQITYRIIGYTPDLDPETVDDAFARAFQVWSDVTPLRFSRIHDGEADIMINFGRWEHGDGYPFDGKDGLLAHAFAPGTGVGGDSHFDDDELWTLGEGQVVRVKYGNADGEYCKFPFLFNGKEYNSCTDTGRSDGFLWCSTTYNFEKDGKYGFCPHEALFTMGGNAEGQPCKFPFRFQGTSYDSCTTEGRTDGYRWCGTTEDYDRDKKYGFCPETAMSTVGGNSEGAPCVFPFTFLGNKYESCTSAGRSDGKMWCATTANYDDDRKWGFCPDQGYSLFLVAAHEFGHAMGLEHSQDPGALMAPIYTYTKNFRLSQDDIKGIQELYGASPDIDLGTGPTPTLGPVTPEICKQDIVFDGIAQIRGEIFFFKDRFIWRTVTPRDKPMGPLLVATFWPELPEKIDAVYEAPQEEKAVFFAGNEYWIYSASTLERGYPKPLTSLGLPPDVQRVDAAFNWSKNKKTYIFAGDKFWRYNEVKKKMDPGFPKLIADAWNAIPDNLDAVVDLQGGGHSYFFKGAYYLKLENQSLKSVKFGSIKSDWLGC
Assay type: biochemical
Protocol: (§1) Various human MMPs (MMP-2, MMP-9 and MMP-13) were purchased from Calbiochem (EMD/MERCK Biosciences).
(§2) The enzyme activity of MMPs was measured according to the method described in C. Graham Knight, Frances Willenbrock and Gillian Murphy: A novel coumarin-labelled peptide for sensitive continuous assays of the matrix metalloproteinases: FEBS LETT., 296, (1992), 263-266. As a substrate, MOCAc-Pro-Leu-Gly-Leu-A2Pr(DNP)- Ala-Arg-NH2 (Peptide Institute, Inc. Osaka, Japan) was used, and the following four assays are performed per compound (inhibitor) for measuring the inhibiting activity.
(§3) (A) Substrate (synthetic substrate), enzyme (MMPs), inhibitor
(§4) (B) Substrate (synthetic substrate), inhibitor
(§5) (C) Substrate (synthetic substrate), enzyme (MMPs)
(§6) (D) Substrate (synthetic substrate)
(§7) In each assay, the fluorescent intensity was measured, and inhibition (%) was calculated by the following equation.
(§8) Inhibition (%)=[I−(A−B)/(C−D)]×100
(§9) IC50 indicates a concentration at which inhibition (%) is 50%.

Structure (SMILES)	IC50 [nM]
CC(C)[C@@H](NS(=O)(=O)N1CCN(c2ccc(C#Cc3ccnc(C(=O)NCc4ccc(N5CCOCC5)cc4)c3)cc2)CC1)C(=O)O	1000 to 10000

What follows are molecules tested against T2, MMP-9 (Homo sapiens, UniProt P14780) in the same assay as above. Settings: substrate MOCAc-Pro-Leu-Gly-Leu-A2Pr(DNP)-Ala-Arg-NH2, fluorescent intensity.
T2 construct: purchased Calbiochem (EMD/MERCK Biosciences)
Assay type: biochemical
Protocol: as §1, §2, §3, §4, §5, §6, §7, §8, §9

T2 sequence (P14780 94-707): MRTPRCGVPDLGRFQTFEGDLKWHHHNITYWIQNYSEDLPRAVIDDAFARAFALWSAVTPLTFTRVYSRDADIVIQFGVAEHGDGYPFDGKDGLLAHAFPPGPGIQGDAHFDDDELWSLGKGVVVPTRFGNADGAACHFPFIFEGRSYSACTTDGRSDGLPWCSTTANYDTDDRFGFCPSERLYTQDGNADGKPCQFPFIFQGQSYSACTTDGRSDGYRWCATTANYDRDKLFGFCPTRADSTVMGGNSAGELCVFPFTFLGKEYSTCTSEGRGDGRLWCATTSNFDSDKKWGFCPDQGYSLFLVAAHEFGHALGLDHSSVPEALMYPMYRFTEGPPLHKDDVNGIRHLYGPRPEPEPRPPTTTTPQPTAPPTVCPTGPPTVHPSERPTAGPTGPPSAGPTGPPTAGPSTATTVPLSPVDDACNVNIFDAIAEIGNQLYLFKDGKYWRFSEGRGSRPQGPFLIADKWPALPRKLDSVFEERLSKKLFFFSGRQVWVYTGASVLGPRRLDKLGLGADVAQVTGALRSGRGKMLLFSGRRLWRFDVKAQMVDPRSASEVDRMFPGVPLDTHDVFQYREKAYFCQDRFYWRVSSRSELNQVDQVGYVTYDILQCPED

Structure (SMILES)	IC50 [nM]
CC(C)[C@@H](NS(=O)(=O)N1CCN(c2ccc(C#Cc3ccnc(C(=O)NCc4ccc(N5CCOCC5)cc4)c3)cc2)CC1)C(=O)O	> 10000

Each molecule was assayed against T3, MMP-13 (Homo sapiens, UniProt P45452) in the same assay as above. Settings: APMA-activated proenzyme; substrate MOCAc-Pro-Leu-Gly-Leu-A2Pr(DNP)-Ala-Arg-NH2, fluorescent intensity; read-out: IC50 MMP-13.
T3 construct: purchased Calbiochem (EMD/MERCK Biosciences)
Assay type: biochemical
Protocol: as §1
Since the purchased MMP-13 was Proenzyme, the activated one was used, which was incubated at 37° C. for 2 hours after the successive addition of an assay buffer (containing 50 mM Tris-HCl (pH7.6), 0.3 M NaCl, 10 mM CaCl2, 0.005% Brij35) and APMA (final concentration 1 mM) to the enzyme solution.
as §2, §3, §4, §5, §6, §7, §8, §9

Structure (SMILES)	IC50 [nM]
CC(C)[C@@H](NS(=O)(=O)N1CCN(c2ccc(C#Cc3ccnc(C(=O)NCc4ccc(N5CCOCC5)cc4)c3)cc2)CC1)C(=O)O	4

Same assay, conditions: compounds not described in the Tables; read-out: inhibiting activity for MMP-13

Structure (SMILES)	IC50 [nM]
C[C@@H](NS(=O)(=O)N1CCN(c2ccc(C#Cc3ccc4cccc(C(=O)NCCNC(=O)OC(C)(C)C)c4c3)cc2)CC1)C(=O)O [Compound I-62, (R)-2-(4-{4-[8-(2-tert-butoxycarbonylaminoethylcarbamoyl)-naphthalen-2-ylethynyl]-phenyl}-piperazine-1-sulfonylamino)-proponic acid]	10 to 100
C[C@@H](NS(=O)(=O)N1CCN(c2ccc(C#Cc3ccc4cccc(/C=C/C#N)c4c3)cc2)CC1)C(=O)O [Compound I-67, (R)-2-(4-{4-[8-((E)-2-cyanovinyl)-naphthalen-2-ylethynyl]-phenyl}-piperazine-1-sulfonylamino)-proponic acid]	< 10
C[C@@H](NS(=O)(=O)N1CCN(c2ccc(C#Cc3ccc4cccc(/C=C/C(N)=O)c4c3)cc2)CC1)C(=O)O [Compound I-68, (R)-2-(4-{4-[8-((E)-2-carbamoylvinyl)-naphthalen-2-ylethynyl]-phenyl}-piperazine-1-sulfonylamino)-proponic acid]	< 10
C[C@@H](NS(=O)(=O)N1CCN(c2ccc(C#Cc3ccc4cccc(/C=C\C#N)c4c3)cc2)CC1)C(=O)O [Compound I-69, (R)-2-(4-{4-[8-((Z)-2-cyanovinyl)-naphthalen-2-ylethynyl]-phenyl}-piperazine-1-sulfonylamino)-proponic acid]	10 to 100
C[C@@H](NS(=O)(=O)N1CCN(c2ccc(C#Cc3ccc4cccc(/C=C/c5nnn[nH]5)c4c3)cc2)CC1)C(=O)O [Compound I-71]	< 10
C[C@@H](NS(=O)(=O)N1CCN(c2ccc(C#Cc3ccc4cccc(/C=C/Cl)c4c3)cc2)CC1)C(=O)O [Compound I-72, (R)-2-(4-{4-[8-((E)-2-chlorovinyl)-naphthalen-2-ylethynyl]-phenyl}-piperazine-1-sulfonylamino)-proponic acid]	10 to 100
CC(C)NS(=O)(=O)c1cccc2ccc(C#Cc3ccc(N4CCN(S(=O)(=O)N[C@H](C)C(=O)O)CC4)cc3)cc12 [Compound I-80, (R)-2-{4-[4-(8-isopropylsulfamoylnaphthalen-2-ylethynyl)-phenyl]-piperazine-1-sulfonylamino}-proponic acid]	10 to 100
C[C@@H](NS(=O)(=O)N1CCN(c2ccc(C#Cc3ccc4cccc(S(N)(=O)=O)c4c3)cc2)CC1)C(=O)O [Compound I-81, (R)-2-{4-[4-(8-sulfamoylnaphthalen-2-ylethynyl)-phenyl]-piperazine-1-sulfonylamino}-proponic acid]	10 to 100
CSc1cccc2ccc(C#Cc3ccc(N4CCN(S(=O)(=O)N[C@H](C)C(=O)O)CC4)cc3)cc12 [Compound I-82, (R)-2-{4-[4-(8-methylsulfanylnaphthalen-2-ylethynyl)-phenyl]-piperazine-1-sulfonylamino}-proponic acid]	10 to 100
C[C@@H](NS(=O)(=O)N1CCN(c2ccc(C#Cc3ccc4cccc(S(C)(=O)=O)c4c3)cc2)CC1)C(=O)O [Compound I-83, (R)-2-{4-[4-(8-methanesulfonylnaphthalen-2-ylethynyl)-phenyl]-piperazine-1-sulfonylamino}-proponic acid]	10 to 100
CCC[C@H](NS(=O)(=O)N1CCN(c2ccc(C#Cc3ccc4cccc(C(N)=O)c4c3)cc2)CC1)C(=O)O [Compound I-92, (S)-2-{4-[4-(8-carbamoylnaphthalen-2-ylethynyl)-phenyl]-piperazine-1-sulfonylamino}-pentanoic acid]	10 to 100
CC(C)[C@@H](NS(=O)(=O)N1CCN(c2ccc(C#Cc3ccc4cccc(C(N)=O)c4c3)cc2)CC1)C(=O)O [Compound I-93, (R)-2-{4-[4-(8-carbamoylnaphthalen-2-ylethynyl)-phenyl]-piperazine-1-sulfonylamino}-3-methylbutanoic acid]	10 to 100
CO/N=C(\C)c1cccc2ccc(C#Cc3ccc(N4CCN(S(=O)(=O)N[C@H](C)C(=O)O)CC4)cc3)cc12 [Compound I-95, (R)-2-{4-[4-(8-{1-[(E)-methoxyimino]-ethyl}-naphthalen-2-ylethynyl)-phenyl]-piperazine-1-sulfonylamino}-proponic acid]	10 to 100
CO/N=C(/C)c1cccc2ccc(C#Cc3ccc(N4CCN(S(=O)(=O)N[C@H](C)C(=O)O)CC4)cc3)cc12 [Compound I-96, (R)-2-{4-[4-(8-{1-[(Z)-methoxyimino]-ethyl}-naphthalen-2-ylethynyl)-phenyl]-piperazine-1-sulfonylamino}-proponic acid]	10 to 100
COc1cccc2ccc(C#Cc3ccc(N4CCN(S(=O)(=O)N[C@H](C)C(=O)O)CC4)cc3)cc12 [Compound I-99, (R)-2-{4-[4-(8-methoxynaphthalen-2-ylethynyl)-phenyl]-piperazine-1-sulfonylamino}-proponic acid]	10 to 100
CC(=O)c1cccc2ccc(C#Cc3ccc(N4CCN(S(=O)(=O)N[C@@H](C(=O)O)C(C)C)CC4)cc3)cc12 [Compound I-101, (R)-2-{4-[4-(8-acetylnaphthalen-2-ylethynyl)-phenyl]-piperazine-1-sulfonylamino}-3-methylbutanoic acid]	10 to 100
CCNC(=O)c1cccc2ccc(C#Cc3ccc(N4CCN(S(=O)(=O)N[C@H](C)C(=O)O)CC4)cc3)cc12 [Compound I-104, (R)-2-{4-[4-(8-ethylcarbamoylnaphthalen-2-ylethynyl)-phenyl]-piperazine-1-sulfonylamino}-proponic acid]	< 10
C[C@H](NS(=O)(=O)N1CCN(c2ccc(C#Cc3ccc4cccc(C(N)=O)c4c3)cc2)CC1)C(=O)O [Compound I-105, (S)-2-{4-[4-(8-carbamoylnaphthalen-2-ylethynyl)-phenyl]-piperazine-1-sulfonylamino}-proponic acid]	10 to 100
C[C@@H](NS(=O)(=O)N1CCN(c2ccc(C#Cc3ccc4cccc(C(=O)NCc5ccccc5)c4c3)cc2)CC1)C(=O)O [Compound I-106, (R)-2-{4-[4-(8-benzylcarbamoylnaphthalen-2-ylethynyl)-phenyl]-piperazine-1-sulfonylamino}-proponic acid]	< 10
C[C@@H](NS(=O)(=O)N1CCN(c2ccc(C#Cc3ccc4cccc(C(=O)NC5CC5)c4c3)cc2)CC1)C(=O)O [Compound I-107, (R)-2-{4-[4-(8-cyclopropylcarbamoylnaphthalen-2-ylethynyl)-phenyl]-piperazine-1-sulfonylamino}-proponic acid]	< 10
Cc1cnc(-c2cccc3ccc(C#Cc4ccc(N5CCN(S(=O)(=O)N[C@H](C)C(=O)O)CC5)cc4)cc23)o1 [Compound I-108, (R)-2-(4-{4-[8-(5-methyloxazol-2-yl)-naphthalen-2-ylethynyl]-phenyl}-piperazine-1-sulfonylamino)-proponic acid]	10 to 100
C[C@@H](NS(=O)(=O)N1CCN(c2ccc(C#Cc3ccc4cccc(-c5ncco5)c4c3)cc2)CC1)C(=O)O [Compound I-109, (R)-2-{4-[4-(8-oxazol-2-ylnaphthalen-2-ylethynyl)-phenyl]-piperazine-1-sulfonylamino}-proponic acid]	10 to 100
CCC[C@H](NS(=O)(=O)N1CCN(c2ccc(C#Cc3ccc4cccc(C(C)=O)c4c3)cc2)CC1)C(=O)O [Compound I-110, (S)-2-{4-[4-(8-acetylnaphthalen-2-ylethynyl)-phenyl]-piperazine-1-sulfonylamino}-pentanoic acid]	10 to 100
C[C@@H](NS(=O)(=O)N1CCN(c2ccc(C#Cc3ccc4cccc(-c5ccc[nH]5)c4c3)cc2)CC1)C(=O)O [Compound I-111, (R)-2-(4-{4-[8-(1H-pyrrol-2-yl)-naphthalen-2-ylethynyl]-phenyl}-piperazine-1-sulfonylamino)-proponic acid]	10 to 100
CC(C)CO/N=C1\CCc2ccc(C#Cc3ccc(N4CCN(S(=O)(=O)N[C@H](C)C(=O)O)CC4)cc3)cc21 [Compound I-161, (R)-2-[4-(4-{3-[(E)-isobutoxyimino]indan-5-ylethynyl}-phenyl)-piperazine-1-sulfonylamino]-proponic acid]	10 to 100
